We go through 2 compounds from patent publication US20230144869A1, “METHODS FOR TREATING CYTOKINE RELEASE SYNDROME” (UNIVERSITY HEALTH NETWORK, priority 2020, published 2023).

Data set [1] relates to mouse primary cancer-associated fibroblasts (CAFs). Put plainly: TGFβ production by primary cancer-associated fibroblasts (CAFs). The format is cell-based. The conditions noted are these: after 3 days; fold change relative to DMSO control; FIG. 3B. An excerpt:
Cancer-associated fibroblasts (CAFs) are used as a model system to investigate TGFβ cytokine production. C57BL/6 mice were obtained from The Jackson Laboratory. The Institutional Animal Care and Use Committee of the University Health Network approved all animal procedures. CAFs were obtained from C57BL/6 mice by growing MC38-CEA mouse colon cancer xenografts subcutaneously in a conventional manner. When tumors reached a size of approximately 1000 mm^3 they were excised and disaggregated, and CAFs were isolated with a Tumor-Associated Fibroblast Isolation Kit (Miltenyi Biotec). Isolated CAFs were grown with a MesenCult Expansion Kit (STEMCELL Technologies, Inc.) at 37° C., 5% CO2, 3% O2, and 100% relative humidity. CAFs were seeded into a 96-well plate in DMEM medium containing 10% FBS 24 hours before treatment with either Compound 1 or DMSO. After 3 days, latent TGFβ was determined by a Mouse Latent TGFβ Legend Max kit by manufacturer's instructions (BioLegend, Inc.). Compound 1 inhibited TGFβ production by mouse primary CAFs. Data are representative of several independent experiments, and are reported as the fold change for Compound 1 relative to the DMSO control of duplicate wells.

The subject of data set [2] is CD4+ and CD8+ T-cells in peripheral blood mononuclear cells (PBMCs). The data set is described as follows: T-cell activation in stimulated PBMCs (activation markers by flow cytometry). The format is cell-based, human. The conditions noted are these: PBMCs stimulated with anti-CD3 and anti-CD28 antibodies, PHA or SEB; 24 or 48 hours; FIG. 1A. For orientation: Flow cytometry measures light scatter and fluorescence of single cells or particles in a stream.

In data set [3] the test system is PBMCs (effector) with irradiated allogenic PBMCs (stimulator). Put plainly: Allogenic mixed lymphocyte reaction (MLR). The format is cell-based, human. The note with it: 4 days plus 18 hours labeling; FIG. 2A-2C. As for the experimental part:
The allogenic MLR is a cell proliferation assay where one population of lymphocytes (effector cells) is stimulated to proliferate by another genetically distinct population of lymphocytes (stimulator cells), which have been rendered non-proliferative. PBMCs [2×10^5 cells, effector (E) population] and irradiated (IR) allogenic PBMCs [1×10^5 cells, stimulator (S) population] were treated with either Compound 1 or DMSO in RPMI 1640 medium containing 10% heat-inactivated FBS, 2-mercaptoethanol and penicillin-streptomycin antibiotics at 37° C., 5% CO2, and 100% humidity. After 4 days, the cells were labeled with ^3H-thymidine for an additional 18 hours to measure lymphocyte proliferation by liquid scintillation counting. […] Multiple independent experiments utilizing different effector/stimulator pairs were conducted. Data are reported as the mean counts per minute (CPM)±standard deviation (SD) of triplicate wells.

The subject of another data set is unstimulated whole blood. Put plainly: Whole blood cytokine release assay (CRA). The note with it: whole blood diluted 4:1 with RPMI 1640, 4 hours; LEGENDplex Human Th Cytokine Panel. The format is cell-based. As to the method: The potential for cytokine release syndrome in patients treated with Compound 1 was evaluated using a whole blood cytokine release assay (CRA). Fresh whole blood from a healthy human donor was diluted 4:1 with RPMI 1640 medium and cultured for 4 hours in the presence of Compound 1 or DMSO. Lipopolysaccharide (LPS) (1 μg/mL) was used as a positive control. Cytokine levels in serum samples were determined by a LEGENDplex Human Th Cytokine Panel by manufacturer's instructions (BioLegend, Inc.). […] Data listed in Table 1 below are representative of several independent experiments, and are reported as the mean fold change for Compound 1 relative to the DMSO control of duplicate wells.

For data set [4], the system named is resting CD4+ and CD8+ T-cells. Put plainly: Viability of resting T-cells (annexin V / 7-AAD flow cytometry). The format is cell-based, human. The conditions noted are these: 48 hours; except at high concentrations (30 μM); FIG. 4. As for the experimental part:
(§1) CD3^+ T-cells and CD14^+ monocytes were purified from PBMCs using Human CD3 MicroBeads and Human CD14 MicroBeads, respectively (Miltenyi Biotech). Purified CD3^+ T-cells (2×10^5 cells) or CD14^+ monocytes (2×10^5 cells) were treated with either Compound 1 or DMSO in RPMI 1640 medium containing 10% heat-inactivated FBS, 2-mercaptoethanol and penicillin-streptomycin antibiotics at 37° C., 5% CO2, and 100% humidity. After 48 hours, the cells were stained with antibodies specific for the indicated cell subsets, and annexin V and 7-aminoactinomycin D (7-AAD) cell viability dyes for measurement by flow cytometry. […] Similar data were obtained at 24 and 72 hours (data not shown). Data are representative of several independent experiments utilizing different human PBMC samples, and are reported as the A decrease in percent viability of duplicate wells [mean±standard deviation (SD)].

For another data set, the system named is resting CD14+ monocytes. Put plainly: Viability of resting monocytes (annexin V / 7-AAD flow cytometry). The note with it: 48 hours; FIG. 4. The format is cell-based, human. As for the experimental part: as §1
Data set [5] relates to anti-CD3 antibody and anti-CD28 antibody-, PHA- or SEB-activated lymphocytes. Put plainly: Proliferation of activated lymphocytes in PBMCs (3H-thymidine). The format is cell-based, human. The note with it: PBMCs stimulated with anti-CD3 and anti-CD28 antibodies, 24 hours plus 18 hours labeling, FIG. 1B. As to the method: PBMCs (2×10^5 cells) were treated with either Compound 1 or DMSO, and anti-CD3 and anti-CD28 antibodies, PHA or SEB in RPMI 1640 medium containing 10% heat-inactivated FBS, 2-mercaptoethanol and penicillin-streptomycin antibiotics at 37° C., 5% CO2, and 100% humidity. After 24 hours, the cells were labeled with ^3H-thymidine for an additional 18 hours to measure lymphocyte proliferation by liquid scintillation counting. Proliferation of anti-CD3 antibody and anti-CD28 antibody-, PHA- or SEB-activated lymphocytes was inhibited by Compound 1 treatment, as shown in FIG. 1B. Similar data were obtained at 48 hours (data not shown). Data are representative of several independent experiments utilizing different PBMC samples, and are reported as the mean counts per minute (CPM)±standard deviation (SD) of duplicate wells.

Data set [6] has as its system anti-CD3 antibody and anti-CD28 antibody-activated PBMCs. The data set is described as follows: Cytokine secretion by anti-CD3 and anti-CD28 antibody-activated PBMCs (LEGENDplex Human Th Cytokine Panel). The note with it: culture supernatants after 24 hours; fold change relative to DMSO control; FIG. 3A. The format is cell-based. As to the method:
PBMCs (2×10^5 cells) were treated with either Compound 1 or DMSO, and anti-CD3 and anti-CD28 antibodies in RPMI 1640 medium containing 10% heat-inactivated FBS, 2-mercaptoethanol and penicillin-streptomycin antibiotics at 37° C., 5% CO2, and 100% humidity. After 24 hours, cytokine levels in culture supernatants were determined by a LEGENDplex Human Th Cytokine Panel by manufacturer's instructions (BioLegend, Inc.).
In the presence of Compound 1, the level of all measured cytokines decreased, including IL-2, IL-6, IFNγ and TNFα. Data are representative of several independent experiments utilizing different human PBMC samples, and are reported as the fold change for Compound 1 relative to the DMSO control of duplicate wells.

The subject of data set [7] is C57BL/6 mice immunized with MOG35-55 peptide. The data set is described as follows: Experimental autoimmune encephalomyelitis (EAE) model. The format is in vivo, mouse. The note with it: 50 mg/kg PO QD during EAE induction; FIG. 5.

In the case of `CN1CCN(c2ccc3nc(-c4c(N)c5ccsc5[nH]c4=O)[nH]c3c2)CC1` [Compound 1], the “TGFβ production (latent TGFβ)” value in data set [1] is reported as “inhibited”. In data set [2], the “CD4+ and CD8+ T-cell activation (cell surface expression of CD25 and CD69, shedding of CD62L)” value is “titratable inhibition”. Further, the “Lymphocyte proliferation in allogenic MLR (3H-thymidine, CPM)” value in [3] is on record as “dose-dependent inhibition”. In the data set with unstimulated whole blood, the “Induction of cytokine levels predictive of cytokine release syndrome in vivo” value is reported as “did not induce”. Also, the “Viability of resting CD4+ and CD8+ T-cells” value in data set [4] is on record as “no significant effect”. Also, the “Viability of resting CD14+ monocytes” value with resting CD14+ monocytes is recorded as “dose-dependent loss of viability”. Besides, in data set [5], the “Lymphocyte proliferation (3H-thymidine, CPM)” value was “inhibited”. In data set [6], the “Level of all measured cytokines, including IL-2, IL-6, IFNγ and TNFα” value was “decreased”.
As to `CN1CCN(c2ccc3nc(-c4c(N)c5sccc5[nH]c4=O)[nH]c3c2)CC1` [Compound 2], the “EAE disease progression (clinical score)” value in [7] is “blocks EAE disease progression”.
